Reference: US20090055940A1, “ZEBRAFISH MODEL OF MLL LEUKEMOGENESIS” (priority 2006, published 2009)
Entries after “also recorded” stand apart in the source; their conditions may differ.

Key:
zebrafish embryos = test: Phenotype of zebrafish embryos after mll depletion (DIC microscopy of live embryos); type: in vivo
Method: (§1) A detailed characterization of the role of wild-type mll in the development of the zebrafish hematopoietic system was also performed. The morpholino knockdown strategy (Paffett-Lugassy et al. (2005) Methods Mol. Med., 105:171-98) was employed to characterize the phenotype of loss of mll and determine whether zebrafish mll depletion is associated with a phenotype resembling that in mammals. […] The construct was obtained from Gene Tools, LLC (Philomath, Oreg.). Target mRNA sequence was 5′-[…]gtaaacaaattctctaaattattgt-3′ (SEQ ID NO: 38; Exon 2 is capitalized; intron 2 is lower case; underline indicates 25-base sequence encompassed by morpholino). The MO E2I2 sequence was 5′-tagagaatttgtttacCTATTGACG-3′ (SEQ ID NO: 39). The normal transcript splicing is shown by the grey lines in FIG. 11A. The aberrant splicing of exon 1 to exon 3 is shown by the black lines in FIG. 11A and the thick black line in FIG. 11A indicates a second form of aberrant splicing due to failure to splice out intron 2. A 2 mM (16 ng/nl) MO E2I2 stock solution was prepared in dH2O and diluted in Danieau Solution to the desired concentration.
Wild type male and female adults were bred, fertilized eggs collected, and 100 embryos at the 1-2 cell stage were injected with 16 ng of MO E2I2. Control uninjected embryos (n=100) and injected embryos were raised in petri dishes in E3 embryo medium (Paffett-Lugassy et al. (2005) Methods Mol. Med., 105:171-98) to the desired age. PTU (1-phenyl-2-thiourea) was applied at 24 hpf as described (Herbomel et al. (2005) Methods Mol. Med., 105:199-214) to inhibit melanin synthesis. To harvest embryos for RNA, 20 embryos were collected in 1.5 ml eppendorf tubes, E3/PTU was removed, embryos were anesthetized with tricaine, tricaine was removed, 100% methanol was added and tubes were placed at −20° C. RNA was prepared using RNeasy (Qiagen) and RT-PCR was performed using SuperScript III One Step kit (Invitrogen) with sense and antisense primers 5′-[…]-3′ (SEQ ID NO: 40) and 5′-[…]-3′ (SEQ ID NO: 41). Knockdown of properly spliced transcript and production of two aberrant transcripts shown in the schematics of FIG. 11B was confirmed by sequencing the products.
DIC images of representative live embryos were taken using Leica DMRBE microscope with 4× objective and captured using Image Pro. […] By 48 hpf, erythroid cells are seen in heart/ventral anterior yolk sac of control (filled black arrow in FIG. 11C). In contrast, erythroid cells are barely visible in morphant (unfilled black arrow), and morphant has smaller eyes (arrow) and persistent hindbrain abnormality (arrow) (FIG. 11C).

[1] = tested on: zebrafish mll mRNA (exon 2-intron 2 splice junction); test: RT-PCR of zebrafish mll transcript splicing after morpholino knockdown; type: in vivo; settings: embryos injected at 1-2 cell stage with 16 ng, products sequenced
Method: as §1
Wild type male and female adults were bred, fertilized eggs collected, and 100 embryos at the 1-2 cell stage were injected with 16 ng of MO E2I2. […]

[2] = 48 hpf, 16 ng injected, vs un-injected control embryos

In the case of “5′-tagagaatttgtttacCTATTGACG-3′ (antisense TAGAGAATTTGTTTACCTATTGACG; all phosphorodiamidate morpholino (PMO)) [MO E2I2]”, the “morphant phenotype by 28 hpf” value (zebrafish embryos; 28 hpf, 16 ng injected, vs un-injected control embryos) is reported as “aberrant protrusion at the tip of the head and enlarged hindbrain ventricle”, the “erythroid cells in the heart and at the ventral yolk sac by 48 hpf” value (zebrafish embryos; [2]) is reported as “substantially less erythroid cells” and the “other morphant features (eyes, hindbrain)” value (zebrafish embryos; [2]) is reported as “smaller eyes and a prominent hindbrain abnormality”. For the same substance, the “viability of morphant embryos” value (zebrafish embryos; embryos injected with 16 ng at 1-2 cell stage) was “viable”, the “embryos exhibiting a phenotype that included hematopoietic and neuronal defects, small size, and delayed development” value (zebrafish embryos; of the 100 embryos injected with 16 ng at 1-2 cell stage) was “Approximately 60%” and the “effect on mll transcript splicing” value [1] was “effectively disrupted; also recorded: inhibited proper splicing and resulted in production of two different aberrantly spliced mll mRNAs and reduction of the normal transcript”.
